Laboratory results taken from EPA's ToxRefDB 2.

Columns and labels:
rat [1] = conditions: Multigenerational reproductive toxicity study, sprague dawley, Oral, Feed, dose end: 2 generation
rabbit [2] = conditions: Prenatal developmental toxicity study, new zealand white, Oral, Gavage/Intubation, dose end: 19 GD
dog [3] = conditions: Chronic toxicity, beagle, Oral, Capsule, dose end: 52 week, group: systemic
dog [4] = conditions: Subchronic oral toxicity in nonrodent, beagle, Capsule, dose end: 13 week, group: systemic
rat [5] = conditions: Combined chronic toxicity/carcinogenicity, sprague dawley, Oral, Feed, dose end: 2 year, group: systemic
mouse = conditions: Carcinogenicity, cd1, Oral, Feed, dose end: 18 month, group: systemic
rat [6] = conditions: Subchronic oral toxicity in rodents, sprague dawley, Feed, dose end: 13 week, group: systemic, systemic / in life observation / body weight / body weight gain + systemic / organ weight / kidney / relative to body weight
rabbit [7] = conditions: Prenatal developmental toxicity study, other, Oral, Gavage/Intubation, dose end: 18 GD
rat [8] = conditions: Subchronic oral toxicity in rodents, fischer, Feed, dose end: 90 day, group: systemic, systemic / pathology microscopic / stomach / erosion + systemic / pathology microscopic / stomach / hyperkeratosis + systemic / pathology …
rat [9] = conditions: Prenatal developmental toxicity study, sprague dawley, Oral, Gavage/Intubation, dose end: 15 GD
[10] = group: offspring, developmental / offspring survival late / viability index / viability index + developmental / offspring survival late / lactation index / …
[11] = group: offspring, developmental / offspring survival late / viability index / viability index + systemic / in life observation / body weight / offspring (pup…
[12] = group: parental, systemic / in life observation / body weight / body weight + systemic / in life observation / body weight / body weight gain + systemic / …
[13] = group: developmental, developmental / developmental malformation / bone / unossified + developmental / developmental malformation / brain / hydrocephalus + …
[14] = group: maternal, reproductive / reproductive performance / aborted / aborted + systemic / in life observation / body weight / body weight gain + systemic / …
[15] = systemic / pathology microscopic / liver / pigmentation + systemic / hematology / erythrocyte (rbc) count differential / erythrocyte (rbc…
[16] = systemic / pathology microscopic / liver / pigmentation + systemic / pathology microscopic / epididymis / inflammation + systemic / …
[17] = systemic / pathology microscopic / thymus / involution + systemic / clinical chemistry / alanine aminotransferase (alt/sgpt) / alanine …
[18] = systemic / pathology microscopic / thymus / involution + systemic / pathology microscopic / epididymis / reduced spermatogenesis + systemic…
[19] = systemic / pathology gross / liver / foci
[20] = systemic / in life observation / mortality / mortality + systemic / pathology microscopic / bone marrow / hyperplasia + systemic / pathology…
[21] = systemic / organ weight / brain / relative to body weight
[22] = group: developmental, developmental / developmental malformation / bone / branched + developmental / developmental malformation / bone / full supernumerary
[23] = group: maternal, systemic / in life observation / body weight / body weight gain + systemic / in life observation / food consumption / food consumption
[24] = group: developmental, developmental / developmental malformation / bone / [other] + developmental / developmental malformation / kidney / dilated renal pelvis + …
[25] = group: maternal, systemic / in life observation / body weight / body weight gain + systemic / in life observation / food consumption / food consumption + …

## CCc1c(C(=O)[O-])c(=O)cnn1-c1ccc(Cl)cc1.[K+] [Clofencet-potassium]
Rat [1]; [10]
  LEL: 393 mg/kg/day
  LOAEL: 393 mg/kg/day
Rat [1]; [11]
  NEL: 38 mg/kg/day
  NOAEL: 38 mg/kg/day
Rat [1]; [12]
  LEL: 1600 mg/kg/day
  LOAEL: 1600 mg/kg/day
  NEL: 393 mg/kg/day
  NOAEL: 393 mg/kg/day
Rabbit [2]; [13]
  LEL: 500 mg/kg/day
  LOAEL: 500 mg/kg/day
  NEL: 150 mg/kg/day
  NOAEL: 150 mg/kg/day
Rabbit [2]; [14]
  LEL: 500 mg/kg/day
  LOAEL: 500 mg/kg/day
  NEL: 150 mg/kg/day
  NOAEL: 150 mg/kg/day
Dog [3]; [15]
  NEL: 5 mg/kg/day
  NOAEL: 5 mg/kg/day
Dog [3]; [16]
  LEL: 30 mg/kg/day
  LOAEL: 30 mg/kg/day
Dog [4]; [17]
  NEL: 50 mg/kg/day
  NOAEL: 50 mg/kg/day
Dog [4]; [18]
  LEL: 200 mg/kg/day
  LOAEL: 200 mg/kg/day
Rat [5]; systemic / in life observation / clinical signs / urine, discoloration + systemic / pathology gross / lung / foci + systemic / pathology …
  LOAEL: 470 mg/kg/day
Rat [5]; [19]
  LEL: 4.7 mg/kg/day
  NEL: < 4.7 mg/kg/day
Rat [5]; systemic / pathology gross / liver / foci + systemic / in life observation / clinical signs / urine, discoloration + systemic / pathology …
  NOAEL: 47 mg/kg/day
mouse; [20]
  LOAEL: 1230 mg/kg/day
  NOAEL: 501 mg/kg/day
mouse; [21]
  LEL: 11.4 mg/kg/day
  NEL: < 11.4 mg/kg/day
Rat [6]
  LEL: 1480 mg/kg/day
  LOAEL: 1480 mg/kg/day
  NEL: 373 mg/kg/day
  NOAEL: 373 mg/kg/day

## CC(C)C1CCC(Cc2ccc(Cl)cc2)C1(O)Cn1cncn1 (stereo unspecified) [Ipconazole]
Rabbit [7]; [22]
  LEL: 50 mg/kg/day
  LOAEL: 50 mg/kg/day
  NEL: 10 mg/kg/day
  NOAEL: 10 mg/kg/day
Rabbit [7]; [23]
  LEL: 50 mg/kg/day
  LOAEL: 50 mg/kg/day
  NEL: 10 mg/kg/day
  NOAEL: 10 mg/kg/day
Rat [8]
  LEL: 29.9 mg/kg/day
  LOAEL: 29.9 mg/kg/day
  NEL: 7.22 mg/kg/day
  NOAEL: 7.22 mg/kg/day
Rat [9]; [24]
  LEL: 30 mg/kg/day
  LOAEL: 30 mg/kg/day
  NEL: 10 mg/kg/day
  NOAEL: 10 mg/kg/day
Rat [9]; [23]
  LOAEL: 30 mg/kg/day
Rat [9]; [25]
  LEL: 30 mg/kg/day
  NEL: 10 mg/kg/day
  NOAEL: 10 mg/kg/day
